Experimental data reported in publication PMC3988166 (PLoS ONE, 2014).
Like-named read-outs stand apart in the source and are kept apart here.

T1: Recombinant human ASGPR (Homo sapiens, UniProt P07306)
T1 construct: purchased Sino Biological Inc. (Beijing, China)
T1 sequence (P07306 62-291 limits assumed): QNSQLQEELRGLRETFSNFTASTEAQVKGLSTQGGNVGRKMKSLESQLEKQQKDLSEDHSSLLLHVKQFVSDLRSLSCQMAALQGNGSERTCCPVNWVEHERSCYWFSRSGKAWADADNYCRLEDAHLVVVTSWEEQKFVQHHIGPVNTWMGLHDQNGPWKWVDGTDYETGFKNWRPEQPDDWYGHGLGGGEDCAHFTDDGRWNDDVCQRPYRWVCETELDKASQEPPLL

B1: Asialoglycoprotein receptor (ASGPR, carbohydrate-binding subunit), P07306 (protein)
chain: MTKEYQDLQHLDNEESDHHQLRKGPPPPQPLLQRLCSGPRLLLLSLGLSLLLLVVVCVIGSQNSQLQEELRGLRETFSNFTASTEAQVKGLSTQGGNVGRKMKSLESQLEKQQKDLSEDHSSLLLHVKQFVSDLRSLSCQMAALQGNGSERTCCPVNWVEHERSCYWFSRSGKAWADADNYCRLEDAHLVVVTSWEEQKFVQHHIGPVNTWMGLHDQNGPWKWVDGTDYETGFKNWRPEQPDDWYGHGLGGGEDCAHFTDDGRWNDDVCQRPYRWVCETELDKASQEPPLL

Experiments:
Recombinant human ASGPR = biological target: T1, Recombinant human ASGPR; assay: biochemical; type: binding
Experimental: SPR experiments were performed on a Biacore T100 (GE Healthcare, Little Chalfont, UK) at 25°C. Recombinant human ASGPR (the subunit of ASGPR that contains the carbohydrate binding site) used was from Sino Biological Inc. (Beijing, China). The receptor was immobilized onto a series S sensor chip CM5 (GE Healthcare, Little Chalfont, UK) using the N-hydroxysuccinimide (NHS) capture kit (GE Healthcare, Little Chalfont, UK).
Recombinant human ASGPR was immobilized onto a series S sensor chip CM5 using the NHS capture kit, where ASGPR was covalently linked to the surface of the chip via free amine groups. Compounds were tested at 10–1000 µM concentrations using multi-cycle kinetics with at least three experiments performed for each interaction. Single cycle kinetics was applied to optimize concentrations prior to completion of multi-cycle kinetics as described by Dumont et al.. […] The running buffer for all SPR experiments was 20 mM HEPES, pH 7.4, 150 mM NaCl, 5 mM CaCl2, and 0.005% TWEEN 20.

Plasma stability assay = type: in vitro ADME; conditions: human, after incubation at 37°C for 120 min, read-out: % remained in human plasma
Experimental: Blood sample collection from a healthy and consenting human adult for this study was approved by and conducted according to the guidelines set by The University of Queensland Medical Research Ethics Committee (approval number: 2009000661). Written consent was obtained prior to the collection of blood samples. Plasma was isolated from fresh-heparin treated blood by centrifugation at 660×g for 15 min. […] Compounds (300 µL) were mixed with 300 µL of the plasma, pre-warmed at 37°C and incubated at 37°C. Samples (50 µL) were collected at predetermined time points (0, 5, 10, 20, 30, 40, 60, 90 and 120 min), and added into 75 µL ACN to precipitate the plasma proteins. Samples were then centrifuged at 7300×g for 10 min.

[1] = Caco-2 cell permeability assay; conditions: Caco-2; for Papp A→B at 150 min, 200 µM: human
Experimental: (§1) Human colorectal adenocarcinoma cells (Caco-2 cells) were obtained from the American Type Culture Collection, Rockville, USA. A Branson Sonifier 250 (Branson Ultrasonics, Danbury, USA) was used to lyse the cells for stability experiments. Protein content was measured using the BioRad protein assay kit (BioRad, Hercules, USA). TPP 96-well plates for stability assays were purchased from Sigma Aldrich (Castle Hill, Australia). For permeability studies Caco-2 cell monolayers were grown in 24 well plates with Transwell polycarbonate cell culture inserts (pore size 0.4 µm, diameter 6.5 mm) from Corning Incorporated (New York, USA). A Millicell-ERS epithelial Transep volt-ohmmeter system (EMD Millipore Corporation, Billerica, USA) was used to measure the transepithelial electrical resistance (TEER) values of the cells. Scintillation counting was carried out using Liquid Scintillation Systems from Beckman Coulter (Brea, USA).
(§2) A cell suspension of Caco-2 cells in the cell culture medium was adjusted to a cell density of 1×10^6 cells/mL before being aliquoted (100 µL) into Transwell polycarbonate cell culture inserts in a 24-well plate, while 600 µL of media was added to the basolateral chamber. The culture medium was changed every other day for 21–28 days. TEER values were measured before and after the assay, to determine the integrity of tight junctions of the cell monolayers. […] Cell monolayers were washed with pre-warmed HBSS–HEPES and incubated for 30 min at 37°C. Test compounds and the control propanolol, were prepared in HBSS–HEPES buffer to a final concentration of 200 µM. After incubation, buffer in the apical chamber was removed and replaced with 100 µL aliquots of each of the test compounds. […] The concentration of the peptide in the collected samples was determined using LC-MS analysis as described for the stability assay above. Radioactivity of the [^14C]-D-mannitol samples was quantified by liquid scintillation counting (Liquid Scintillation Systems).
(§3) The apparent permeability (Papp, cm/s) of each compound was calculated using the following equation: [drawing 1]
(§4) Where dC/dt is the steady-state rate of change in the test item concentration (M/s) or radiochemical concentration (dpm mL/s) in the receiver chamber, Vr is the volume of the receiver chamber (mL), A is the surface area of the cell monolayers and C0 is the initial concentration in the donor chamber (M or dpm/mL).
(§5) The average Papp values (±S.D.) from three replicates is presented.

[2] = Caco-2 cell permeability assay in the presence of phlorizin (inhibitor for SGLT1); type: in vitro ADME, human; conditions: Caco-2 cell monolayer, 200 µM compound + 100 µM phlorizin, n = 3; read-out: P app, Phlorizin
Experimental: (§6) Permeability experiments (as described above) were conducted to investigate whether the compounds used the sugar transporters SGLT1 or GLUT2 for their transport across cell membranes. Samples containing 200 µM test compound and 100 µM phlorizin (inhibitor for SGLT1) or 100 µM phloretin (inhibitor for GLUT2) in HBSS-HEPES buffer were added to the apical chamber. […] P app values for each compound were then calculated as above.

[3] = Caco-2 cell permeability assay in the presence of phloretin (inhibitor for GLUT2); type: in vitro ADME, human; conditions: Caco-2 cell monolayer, 200 µM compound + 100 µM phloretin, n = 3; read-out: P app, Phloretin
Experimental: as §6

Caco-2 cell monolayers = assay: Caco-2 cell permeability assay
Experimental: as §1, §2, §3, §4, §5

Gal-Enk (Homo sapiens) = assay: SPR
[4] = biological target: Gal-Lac-Enk (Homo sapiens); assay: SPR
Lac-Enk (Homo sapiens) = assay: SPR
[5] = biological target: Leu-enkephalin (Homo sapiens); assay: SPR

Molecule	Papp A→B at 150 min, 200 µM [1] [×10⁻⁶ cm/s]	Papp A→B [2] [×10⁻⁶ cm/s]	Papp A→B [3] [×10⁻⁶ cm/s]	koff (Recombinant human ASGPR) [s⁻¹]	kon (Recombinant human ASGPR) [M⁻¹ s⁻¹]	Kd (Recombinant human ASGPR; KD) [µM]	further results
OC[C@H]1O[C@@H](O[C@H]2[C@H](O)[C@@H](O)[C@H](O)O[C@@H]2CO)[C@H](O)[C@@H](O)[C@H]1O [D-Lactose, reference compound]							Kd (Recombinant human ASGPR; SPR, immobilized ASGPR, 25°C, read-out: KD): 19.2 ± 3.28 µM
CC(C)C[C@H](NC(=O)[C@H](Cc1ccccc1)NC(=O)CNC(=O)CNC(=O)[C@H](Cc1ccc(O)cc1)NC(=O)CCC(=O)N[C@@H]1O[C@H](CO)[C@H](O)[C@H](O)[C@H]1O)C(N)=O [Gal-Enk, N^1-Leu-enkephalin-N^4-(β-D-galactopyranosyl)succinamide]	0.798 ± 0.203	1.18 ± 0.276	1.58 ± 0.723	0.072 ± 0.025	328 ± 84.8	219 ± 164	remaining at 2 h, 0.5 mg/mL (Plasma stability assay): ~60%
CC(C)C[C@H](NC(=O)[C@H](Cc1ccccc1)NC(=O)CNC(=O)CNC(=O)[C@H](Cc1ccc(O)cc1)NC(=O)CCC(=O)N[C@@H]1O[C@H](CO)[C@@H](O[C@@H]2O[C@H](CO)[C@H](O[C@H]3O[C@H](CO)[C@H](O)[C@H](O)[C@H]3O)[C@H](O)[C@H]2O)[C@H](O)[C@H]1O)C(N)=O [Gal-Lac-Enk, N^1-Leu-enkephalin-N^4-(α-D-galactopyranosyl-(1→4)-β-D-galactopyranosyl-(1→4)-β-D-glucopyranosyl)succinamide]	0.44 ± 0.163	0.561 ± 0.137	0.712 ± 0.137	0.0041 ± 0.003	45 ± 28.9	91.1 ± 22.1	remaining at 2 h (Plasma stability assay; plasma): ~100%; increase in binding affinity compared to the peptide alone (Recombinant human ASGPR): two-fold
CC(C)C[C@H](NC(=O)[C@H](Cc1ccccc1)NC(=O)CNC(=O)CNC(=O)[C@H](Cc1ccc(O)cc1)NC(=O)CCC(=O)N[C@@H]1O[C@H](CO)[C@@H](O[C@@H]2O[C@H](CO)[C@H](O)[C@H](O)[C@H]2O)[C@H](O)[C@H]1O)C(N)=O [Lac-Enk, N^1-Leu-enkephalin-N^4-(β-D-galactopyranosyl-(1→4)-β-D-glucopyranosyl)succinamide]		0.711 ± 0.145	0.921 ± 0.084	0.0086 ± 0.002	40.7 ± 6.3	211 ± 70.9	remaining at 2 h, 0.5 mg/mL (Plasma stability assay): ~70%; Papp A→B [1]: 1.72 ×10⁻⁶ cm/s; P app, Control (compound only) (Caco-2 cell monolayers; Caco-2 cell monolayer, 200 µM, n = 3): 17.20±12.40 ×10^−7 cm/s
OC[C@@H](O)[C@@H](O)[C@H](O)[C@H](O)CO [^14C mannitol, [^14C]-D-mannitol, reference compound]							apparent permeability (Papp) (Caco-2 cell monolayers; Caco-2 monolayers, apical to basolateral, compound only, values in text): 4.4×10^−9 (±3.86) cm/s
CC(C)NCC(O)COc1cccc2ccccc12 (stereo not drawn) [propanolol, reference compound]	134						
B1							Kd (Gal-Enk (Homo sapiens)): 219 µM; Kd [4]: 91.1 µM; Kd (Lac-Enk (Homo sapiens)): 211 µM; Kd [5]: 277 µM
